Data from patent publication US20110319392A1, “Thiazole Sulfonamide And Oxazole Sulfonamide Kinase Inhibitors” (priority 2009, published 2011).

What was measured:
[1] = system: Colo205 tumor cells; test: Cell growth inhibition assay (CellTiter-Glo), Colo205; assay type: cell-based, Human; settings: Homo sapiens, COLO 205, 72 h; 3 days incubation
Summary of the method: (§1)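 Cells plated at 500 cells/well in their growth media, dosed next day with nine-step 1:3 compound dilutions (final DMSO 0.2%), then incubated 3 days at 37° C, 5% CO2. Total ATP read by CellTiter-Glo luminescence as a surrogate for cell number; IC50 interpolated from 4-parameter fit versus DMSO controls.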

[2] = molecular target: T1, EGFR (Homo sapiens, UniProt P00533); test: EGFR substrate phosphorylation assay (HTRF); assay type: biochemical
T1 construct: made in house; host or cells: baculovirus expression system
Summary of the method: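 Baculovirus-expressed EGFR (0.8 nM) or ErbB2 (10 nM) in enzyme mix, preincubated 1 h at 20 °C with compound (0.00027–47.6 μM final), then 90 min at 20 °C with substrate mix of 20 μM ATP, 0.8 uM biotinylated Peptide C, MnCl2, MOPS pH 7.5. Phosphotyrosine by HTRF; pIC50 reported.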

[3] = system: HN5 tumor cells; test: Cell growth inhibition assay (CellTiter-Glo), HN5; assay type: cell-based, Human; settings: Homo sapiens, 72 h; 3 days incubation
Summary of the method: as §1

T1 sequence (P00533 25-1210): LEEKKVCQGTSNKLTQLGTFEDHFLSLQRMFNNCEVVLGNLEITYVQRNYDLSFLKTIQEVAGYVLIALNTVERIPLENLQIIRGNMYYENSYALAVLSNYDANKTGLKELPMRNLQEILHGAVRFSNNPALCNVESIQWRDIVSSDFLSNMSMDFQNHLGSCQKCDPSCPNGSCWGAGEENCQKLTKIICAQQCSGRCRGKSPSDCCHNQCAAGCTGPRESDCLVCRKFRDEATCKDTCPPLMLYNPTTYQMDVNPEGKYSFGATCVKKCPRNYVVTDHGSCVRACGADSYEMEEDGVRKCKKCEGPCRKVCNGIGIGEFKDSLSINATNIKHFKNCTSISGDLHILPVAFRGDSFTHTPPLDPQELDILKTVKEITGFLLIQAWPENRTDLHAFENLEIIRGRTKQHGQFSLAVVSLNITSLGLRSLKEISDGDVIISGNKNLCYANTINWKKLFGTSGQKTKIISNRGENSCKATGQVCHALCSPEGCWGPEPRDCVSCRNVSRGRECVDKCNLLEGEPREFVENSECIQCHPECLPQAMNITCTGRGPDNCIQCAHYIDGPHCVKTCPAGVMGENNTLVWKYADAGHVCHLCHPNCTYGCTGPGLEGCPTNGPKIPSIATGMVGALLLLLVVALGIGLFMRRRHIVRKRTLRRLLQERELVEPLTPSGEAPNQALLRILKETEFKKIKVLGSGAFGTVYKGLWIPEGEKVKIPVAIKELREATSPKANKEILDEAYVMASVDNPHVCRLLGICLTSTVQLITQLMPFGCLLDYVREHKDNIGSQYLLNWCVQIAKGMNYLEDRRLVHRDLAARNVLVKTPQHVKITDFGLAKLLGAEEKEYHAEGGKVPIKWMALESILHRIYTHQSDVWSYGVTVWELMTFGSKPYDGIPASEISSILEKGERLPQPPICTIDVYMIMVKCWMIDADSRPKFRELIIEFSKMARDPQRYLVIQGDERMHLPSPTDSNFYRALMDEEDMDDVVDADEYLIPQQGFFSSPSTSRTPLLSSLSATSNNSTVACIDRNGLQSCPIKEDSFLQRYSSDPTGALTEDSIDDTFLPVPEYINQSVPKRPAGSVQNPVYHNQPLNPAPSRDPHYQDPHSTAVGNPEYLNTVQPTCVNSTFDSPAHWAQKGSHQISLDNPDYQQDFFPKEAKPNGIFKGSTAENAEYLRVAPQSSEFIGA

## CCc1nc(-c2cccc(NS(=O)(=O)c3ccccc3)c2)c(-c2ccnc(Nc3ccc(N4CCN(C(C)=O)CC4)nc3)n2)s1 [Example 3, N-{3-[5-(2-{[6-(4-Acetyl-1-piperazinyl)-3-pyridinyl]amino}-4-pyrimidinyl)-2-ethyl-1,3-thiazol-4-yl]phenyl}benzenesulfonamide]
[1]
  IC50: < 100 nM
[2]
  IC50: > 1000 nM
[3]
  IC50: > 1000 nM

## CCc1nc(-c2cccc(NS(=O)(=O)c3ccccc3)c2)c(-c2ccnc(Nc3ccc(N4CCOCC4)c(F)c3)n2)s1 [Example 4]
[1]
  IC50: 100 to 1000 nM
[2]
  IC50: > 1000 nM
[3]
  IC50: 100 to 1000 nM

## CCc1nc(-c2cccc(NS(=O)(=O)c3ccccc3)c2)c(-c2ccnc(Nc3ccc(OC)c(N4CCN(CCS(C)(=O)=O)CC4)c3)n2)s1 [Example 5, N-[3-(2-Ethyl-5-{2-[(4-(methyloxy)-3-{4-[2-(methylsulfonyl)ethyl]-1-piperazinyl}phenyl)amino]-4-pyrimidinyl}-1,3-thiazol-4-yl)phenyl]benzenesulfonamide]
[1]
  IC50: < 100 nM
[2]
  IC50: 100 to 1000 nM
[3]
  IC50: 100 to 1000 nM

## CC(=O)N1CCc2cc(Nc3nccc(-c4sc(C(C)C)nc4-c4cccc(NS(=O)(=O)c5ccccc5)c4)n3)ccc21 [Example 71]
[1]
  IC50: < 100 nM
[2]
  IC50: 100 to 1000 nM
[3]
  IC50: 100 to 1000 nM

## CC(C)c1nc(-c2cccc(NS(=O)(=O)c3ccccc3)c2)c(-c2ccnc(Nc3ccc(CC4CCN(CCS(C)(=O)=O)CC4)c(F)c3)n2)s1 [Example 72]
[1]
  IC50: 100 to 1000 nM
[2]
  IC50: 100 to 1000 nM
[3]
  IC50: 100 to 1000 nM

## CC(C)c1nc(-c2cccc(NS(=O)(=O)c3ccccc3)c2)c(-c2ccnc(Nc3ccc(F)c(N4CCN(CCS(C)(=O)=O)CC4)c3)n2)s1 [Example 73]
[1]
  IC50: < 100 nM
[2]
  IC50: 100 to 1000 nM
[3]
  IC50: 100 to 1000 nM

## CC(C)c1nc(-c2cccc(NS(=O)(=O)c3ccccc3)c2)c(-c2ccnc(Nc3ccc(N4CCN(CCS(C)(=O)=O)CC4)c(F)c3F)n2)s1 [Example 74]
[1]
  IC50: 100 to 1000 nM
[2]
  IC50: > 1000 nM
[3]
  IC50: > 1000 nM

## CC(C)c1nc(-c2cccc(NS(=O)(=O)c3c(F)cccc3F)c2)c(-c2ccnc(Nc3ccc(N4CCN(C(C)C)CC4)cc3O)n2)s1 [Example 78]
[1]
  IC50: < 100 nM
[2]
  IC50: 100 to 1000 nM
[3]
  IC50: > 1000 nM

## COc1cc(N2CCN(CCF)CC2)ccc1Nc1nccc(-c2sc(C(C)C)nc2-c2cccc(NS(=O)(=O)c3c(F)cccc3F)c2)n1 [Example 79]
[1]
  IC50: 100 to 1000 nM
[2]
  IC50: 100 to 1000 nM
[3]
  IC50: > 1000 nM

## CC(C)c1nc(-c2cccc(NS(=O)(=O)c3c(F)cccc3F)c2)c(-c2ccnc(Nc3ccc(N4CCN(CCO)CC4)nc3)n2)s1 [Example 80]
[1]
  IC50: < 100 nM
[2]
  IC50: < 100 nM
[3]
  IC50: 100 to 1000 nM

## CC(C)c1nc(-c2cccc(NS(=O)(=O)c3c(F)cccc3F)c2)c(-c2ccnc(Nc3cccc(N4CCN(C)CC4)c3)n2)s1 [Example 81]
[1]
  IC50: < 100 nM
[2]
  IC50: < 100 nM
[3]
  IC50: 100 to 1000 nM

## CC(C)c1nc(-c2cccc(NS(=O)(=O)c3c(F)cccc3F)c2)c(-c2ccnc(Nc3ccc(N4CCCNCC4)nc3)n2)s1 [Example 82]
[1]
  IC50: < 100 nM
[2]
  IC50: < 100 nM
[3]
  IC50: 100 to 1000 nM

## CC(C)c1nc(-c2cc(F)cc(NS(=O)(=O)c3ccc(F)cc3)c2)c(-c2ccnc(Nc3ccc(N4CCOCC4)c(F)c3)n2)s1 [Example 83]
[1]
  IC50: 100 to 1000 nM
[2]
  IC50: > 1000 nM
[3]
  IC50: 100 to 1000 nM

## CC(C)c1nc(-c2cc(F)cc(NS(=O)(=O)c3c(F)cccc3F)c2)c(-c2ccnc(Nc3ccc(N4CCOCC4)nc3)n2)s1 [Example 84]
[1]
  IC50: < 100 nM
[2]
  IC50: 100 to 1000 nM
[3]
  IC50: 100 to 1000 nM

## CC(C)c1nc(-c2cc(F)cc(NS(=O)(=O)c3c(F)cccc3F)c2)c(-c2ccnc(Nc3ccc(N4CCOCC4)c(F)c3)n2)s1 [Example 85]
[1]
  IC50: < 100 nM
[2]
  IC50: > 1000 nM
[3]
  IC50: 100 to 1000 nM

## CC(C)c1nc(-c2cccc(NS(=O)(=O)c3c(F)cccc3F)c2)c(-c2ccnc(Nc3cc(F)c(N4CCN(CCS(C)(=O)=O)CC4)cc3F)n2)s1 [Example 87]
[1]
  IC50: < 100 nM
[2]
  IC50: > 1000 nM
[3]
  IC50: > 1000 nM

## CC(C)c1nc(-c2cccc(NS(=O)(=O)c3c(F)cccc3F)c2)c(-c2ccnc(Nc3ccc(N4CCCN(CCS(C)(=O)=O)CC4)nc3)n2)s1 [Example 88]
[1]
  IC50: < 100 nM
[2]
  IC50: 100 to 1000 nM
[3]
  IC50: 100 to 1000 nM

## CC(C)c1nc(-c2cccc(NS(=O)(=O)c3c(F)cccc3F)c2)c(-c2ccnc(Nc3ccc(N4CC[C@@H](O)C4)nc3)n2)s1 [Example 89]
[1]
  IC50: < 100 nM
[2]
  IC50: 100 to 1000 nM
[3]
  IC50: 100 to 1000 nM

## Cc1cc(N2CCC(N3CCCCC3)CC2)ccc1Nc1nccc(-c2sc(C(C)C)nc2-c2cccc(NS(=O)(=O)c3c(F)cccc3F)c2)n1 [Example 91]
[1]
  IC50: < 100 nM
[2]
  IC50: < 100 nM
[3]
  IC50: > 1000 nM

## CC(C)c1nc(-c2cccc(NS(=O)(=O)c3ccccc3)c2)c(-c2ccnc(Nc3ccc(N4CCOCC4)cn3)n2)s1 [Example 92]
[1]
  IC50: 100 to 1000 nM
[2]
  IC50: > 1000 nM
[3]
  IC50: 100 to 1000 nM

## C=C(C)c1nc(-c2cccc(NS(=O)(=O)c3c(F)cccc3F)c2)c(-c2ccnc(Nc3ccc(N4CCN(CCF)CC4)c(F)c3)n2)s1 [Example 93]
[1]
  IC50: < 100 nM
[2]
  IC50: 100 to 1000 nM
[3]
  IC50: > 1000 nM

## CC(C)c1nc(-c2ccc(F)c(NS(=O)(=O)c3c(F)cccc3F)c2)c(-c2ccnc(Nc3ccc(N4CCN(CCS(C)(=O)=O)CC4)c(F)c3)n2)s1 [Example 95]
[1]
  IC50: < 100 nM
[2]
  IC50: 100 to 1000 nM
[3]
  IC50: 100 to 1000 nM

## CC(=O)N1CCN(c2ccc(Nc3nccc(-c4sc(C(C)C)nc4-c4cccc(NS(=O)(=O)c5cc(F)ccc5F)c4)n3)cn2)CC1 [Example 96]
[1]
  IC50: < 100 nM
[2]
  IC50: 100 to 1000 nM
[3]
  IC50: 100 to 1000 nM
